Like-named read-outs stand apart in the source and are kept apart here.
Experiments:
[1] = system: VEGF-C-induced LEC sprouting; test: LEC sprouting assay: VEGF-C-induced sprouting; format: cell-based, human; conditions: VEGF-C 50 ng/ml, 24 h
Description: (§1) LEC spheroids were generated by seeding primary LECs at passage 4 or 5 in each well of 384-well hanging-drop plates (3D Biomatrix) in complete EGM-2 MV medium containing 0.25% methyl cellulose according to the manufacturer's instructions (750 cells/well). After 18 hours, LEC spheroids were collected, resuspended in serum-free EBM-2 basal medium, and mixed with collagen solution (PureCol collagen, Advanced BioMatrix, 2.2 mg/ml in M199 medium, pH adjusted to 7.4 with NaHCO3 and NaOH). Aliquots of the LEC spheroid/collagen mixture (250 μl/well of 48-well plate) were incubated in the presence or absence of various test agents for 24 hr. At the end of the incubation period, spheroids were stained with Calcein AM (Invitrogen, 1 μg/mL, 37° C., and 30 min). Fluorescent images were acquired using the EVOS FL cell imaging system, pixels were inverted for better visualization and cumulative length of each sprout was calculated. Results were expressed as fold change compared to corresponding controls. It was observed that sprout lengths vary from passages to passages. Test agents used included thiodigalactoside (10 to 50 mM, Carbosynth), 3′-sialyl lactose (2 to 10 mM, Carbosynth), 6′-sialyl lactose (2 to 10 mM, Carbosynth), LY294002 (20 μM, Abeam), U0126 (20 μM, Abeam), PD0325901 (1 μM, Selleckchem), human VEGFR-3-Fc chimera (10 μg/ml, R&D), human VEGFR-2-Fc chimera (10 μg/ml, R&D), Avastin (10 μg/ml, bevacizumab, Genentech/Roche), human control IgG (10 μg/ml, Southern Biotech), anti-human podoplanin functional grade antibody (10 μg/ml, eBioscience), and rat IgG2a κ isotype control functional grade antibody (10 μg/ml, eBioscience).
In this assay, the LEC spheroids were treated with VEGF-C (50 ng/ml) in the presence or absence of 0.75 μM of Gal-8 for 24 hours, and then accumulated sprout lengths were quantified. […] Synergistic effect of Gal-8 on VEGF-C-induced LEC sprouting was dose-dependent. […] At concentrations >0.5 μM Gal-8, there was no further increase in the degree of VEGF-C-induced lymphangiogenesis (FIG. 4C).
To further characterize the role of carbohydrate-mediated recognition in VEGF-C-induced lymphangiogenesis, LEC spheroids were stimulated with VEGF-C (50 ng/ml) in the presence or absence of three different galectin inhibitors. […] Therefore, the data establishes the critical role of Gal-8-mediated carbohydrate-mediated recognition in VEGF-C-induced lymphangiogenesis.

[2] = system: Gal-8-induced LEC sprouting; test: LEC sprouting assay: Gal-8-induced sprouting with inhibitors or knockdown; format: cell-based, human
Description: as §1, with “It was observed that sprout lengths vary from passages to passages.” left out
To determine the role of these pathways on Gal-8-induced lymphangiogenesis, LEC spheroids were stimulated with Gal-8 (0.75 μM) in the presence or absence of PI3K inhibitor (LY294002, 20 μM) and two different MEK inhibitors (U0126, 20 μM; PD0325901, 1 μM). After overnight treatment with Gal-8, accumulated sprout lengths were quantified.

VEGFR-3 = test: Affinity precipitation assay, VEGFR-3; format: binding, human; conditions: 0.1 M sugar
Description: (§2) Five mg of plant lectins (Vector Labs) and galectins were conjugated to 330 mg of Pierce® NHS-activated agarose dry resin in accordance with the manufacturer's instructions (Thermo Scientific). Primary LECs (Lonza) were lysed in Triton lysis buffer (20 mM Tris-HCl, pH 7.4; 150 mM NaCl; 0.5% Triton X-100 with protease inhibitor cocktail). LEC lysates (250 μg in 500 μL lysis buffer supplemented with 10 mM MgCl2) were incubated with 40 μL (50% slurry) of agarose-conjugated lectins (4° C., overnight). Beads were pelleted by centrifugation at 3000 rpm for 1 min. Non-specific binding proteins were removed by washing the beads with Triton lysis buffer once and PBS twice. Supernatants were discarded; bound proteins were eluted by boiling the beads with 20 μL of 2× Laemmli sample buffer for 7 min, and examined by western blotting.
Next, a series of examples were performed to determine whether VEGF-C-induced lymphangiogenesis is dependent on Gal-8. To determine whether VEGFR-3 is a Gal-8-binding protein, LEC lysates were incubated with Gal-8-conjugated agarose beads in the presence or absence of 0.1 M of lactose (an inhibiting sugar) or sucrose (a non-inhibiting sugar). Bound proteins were examined and were compared to total cell lysates (input) by western blot using anti-VEGFR-3 antibody. Three forms of VEGFR-3 (125 kDa, 175 kDa and 195 kDa) were detected in total cell lysates (FIG. 5A) (Bando, H., et al. 2004. Int J Cancer 111:184-191.). […] Having shown that Gal-8 binds to VEGFR-3 in LECs and that the carbohydrate-binding activity of Gal-8 is required for the synergistic effect of Gal-8 on VEGF-C-induced LEC sprouting, it was of interest to determine whether VEGFR-3 bears 3′-sialylated glycans.

PDPN = target: T1, PDPN (Homo sapiens, UniProt Q86YL7); test: Affinity precipitation assay, PDPN; format: binding; conditions: for inhibition of binding of PDPN to Gal-8: 0.1 M sugar; for binding of PDPN (in words): galectin-conjugated agarose beads, LEC lysates
T1 construct: Within the whole cell lysate, an anti-PDPN-reactive 43-kDa component was detected; host or cells: primary lymphatic endothelial cells (LECs)
T1 sequence (Q86YL7 23-162): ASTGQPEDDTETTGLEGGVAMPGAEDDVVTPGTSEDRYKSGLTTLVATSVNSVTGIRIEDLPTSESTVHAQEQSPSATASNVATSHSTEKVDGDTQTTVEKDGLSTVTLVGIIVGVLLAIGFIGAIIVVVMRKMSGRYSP
Description: as §2
To determine whether PDPN binds to Gal-8 in a carbohydrate-dependent manner, LEC lysates were incubated with Gal-8-conjugated to agarose beads in the presence or absence of 0.1 M of lactose (an inhibiting sugar) or sucrose (a non-inhibiting sugar). Bound proteins were examined with total cell lysates (input) by western blot using an anti-PDPN antibody. To determine specificity of PDPN binding to Gal-8, LEC lysates were also incubated with agarose beads conjugated to Gal-1, Gal-3 and Gal-7. Within the whole cell lysate, an anti-PDPN-reactive 43-kDa component was detected (FIG. 7A).

LEC spheroids = test: LEC sprouting assay: stimulation by galectins alone; format: cell-based, human; conditions: 24 hours
Description: as §1
To assess the effect of galectins on LEC sprouting, LEC spheroids were embedded in a collagen matrix and incubated with media containing various test agents. After 24 hours, the cumulative length of the sprouts for each spheroid was quantified by ImageJ. […] Multiple approaches were used to determine whether the stimulatory effect of Gal-8 on LEC sprouting was carbohydrate-dependent.

[3] = Gal-8 0.75 μM, 24 h, TDG 20 mM, LY294002 20 μM, U0126 20 μM, PD0325901 1 μM, Avastin 10 μg/ml, Obtustatin 4 μM, antibodies 20 μg/ml, siRNA-transfected LECs

For `CC(=O)N[C@H]1[C@H]([C@H](O)[C@H](O)CO)O[C@@](O[C@H]2[C@@H](O)[C@@H](CO)O[C@@H](O[C@H]3[C@H](O)[C@@H](O)C(O)O[C@@H]3CO)[C@@H]2O)(C(=O)O)C[C@@H]1O` (some centres unmarked) [3′-SL, 3′-sialyllactose], the “effect on VEGF-C-induced LEC sprouting (in words)” value [1] was “inhibited”, the “inhibition of Gal-8-induced LEC sprouting” value ([2]; at 2 mM concentration) was 95% and the “nH of inhibition of galectin-8-mediated LEC sprouting” value ([2]; galectin-8 at 0.75 μM) was 3.38. The IC50 ([2]; galectin-8 at 0.75 μM, read-out: IC50 of the inhibitory effect on galectin-8-mediated LEC sprouting) was 1250 µM and the Ki ([2]; galectin-8 at 0.75 μM, read-out: Ki (Ki=IC50/(1+[A]/EC50))) was 1670 µM.

For `CC(=O)N[C@H]1[C@H]([C@H](O)[C@H](O)CO)O[C@@](OC[C@H]2O[C@@H](O[C@H]3[C@H](O)[C@@H](O)[C@H](O)O[C@@H]3CO)[C@H](O)[C@@H](O)[C@H]2O)(C(=O)O)C[C@@H]1O` [6′-SL, 6′-sialyl lactose], the “effect on Gal-8-induced LEC sprouting (in words)” value [2, 3] was “had no effect”.

With `O=C(NOC[C@H](O)CO)c1ccc(F)c(F)c1Nc1ccc(I)cc1F` [PD0325901] the “effect on Gal-8-induced LEC sprouting (in words)” value [2, 3] was “markedly inhibited”.

In the case of `N#CC(=C(/N)Sc1ccccc1N)/C(C#N)=C(\N)Sc1ccccc1N` [U0126], the “effect on Gal-8-induced LEC sprouting (in words)” value [2] is reported as “markedly inhibited”.

`OC[C@H]1O[C@@H](O[C@H]2[C@H](O)[C@@H](O)C(O)O[C@@H]2CO)[C@H](O)[C@@H](O)[C@H]1O` (some centres unmarked) [lactose, reference compound] was tested, and the “inhibition of binding of VEGFR-3 to Gal-8” value (VEGFR-3) was “inhibited” and the “inhibition of binding of PDPN to Gal-8” value (PDPN) was “inhibited”.

For `OC[C@H]1O[C@@](CO)(O[C@H]2O[C@H](CO)[C@@H](O)[C@H](O)[C@H]2O)[C@@H](O)[C@@H]1O` [sucrose, reference compound], the “inhibition of binding of VEGFR-3 to Gal-8” value (VEGFR-3) was “not sucrose, a noncompeting sugar” and the “inhibition of binding of PDPN to Gal-8” value (PDPN) was “not by sucrose”.

Gal-1: recombinant galectin-1 was tested, and the “promotion of LEC sprouting by the agent alone (in words)” value (“promotion of LEC sprouting” for short) (LEC spheroids) was “not Gal-1, Gal-3 or Gal-7, promotes LEC sprouting”, the “effect on VEGF-C-induced LEC sprouting (in words)” value [1] was “did not potentiate” and the “binding of PDPN (in words)” value (PDPN) was “does not bind”.

In the case of Gal-3: recombinant galectin-3, the “promotion of LEC sprouting” value (LEC spheroids) is reported as “not Gal-1, Gal-3 or Gal-7, promotes LEC sprouting”, the “effect on VEGF-C-induced LEC sprouting (in words)” value [1] is reported as “did not potentiate” and the “binding of PDPN (in words)” value (PDPN) is reported as “does not bind”.

In the case of Gal-7: recombinant galectin-7, the “promotion of LEC sprouting” value (LEC spheroids) is reported as “not Gal-1, Gal-3 or Gal-7, promotes LEC sprouting”, the “effect on VEGF-C-induced LEC sprouting (in words)” value [1] is reported as “did not potentiate” and the “binding of PDPN (in words)” value (PDPN) is reported as “does not bind”.

With “Gal-8Q47A: Gal-8 mutant which has lost its ability to bind to α2,3-sialylated glycans” the “promotion of LEC sprouting” value (LEC spheroids) was “not promote lymphangiogenesis”.

In the case of “Obtustatin: a blocking peptide against integrin α1β1 (CTTGPCCRQCKLKPAGTTCWKTSLTSHYCTGKSCDCPLYPG) [reference compound]”, the “effect on VEGF-C-induced LEC sprouting (in words)” value [1] is reported as “inhibited” and the “effect on Gal-8-induced LEC sprouting (in words)” value [2, 3] is reported as “inhibited”.

B1: VEGFR-3-Fc: human VEGFR-3-Fc chimera (protein)
chain: YSMTPPTLNITEESHVIDTGDSLSISCRGQHPLEWAWPGAQEAPATGDKDSEDTGVVRDCEGTDARPYCKVLLLHEVHANDTGSYVCYYKYIKARIEGTTAASSYVFVRDFEQPFINKPDTLLVNRKDAMWVPCLVSIPGLNVTLRSQSSVLWPDGQEVVWDDRRGMLVSTPLLHDALYLQCETTWGDQDFLSNPFLVHITGNELYDIQLLPRKSLELLVGEKLVLNCTVWAEFNSGVTFDWDYPGKQAERGKWVPERRSQQTHTELSSILTIHNVSQHDLGSYVCKANNGIQRFRESTEVIVHENPFISVEWLKGPILEATAGDELVKLPVKLAAYPPPEFQWYKDGKALSGRHSPHALVLKEVTEASTGTYTLALWNSAAGLRRNISLELVVNVPPQIHEKEASSPSIYSRHSRQALTCTAYGVPLPLSIQWHWRPWTPCKMFAQRSLRRRQQQDLMPQCRDWRAVTTQDAVNPIESLDTWTEFVEGKNKTVSKLVIQNANVSAMYKCVVSNKVGQDERLIYFYVTTIPDGFTIESKPSEELLEGQPVLLSCQADSYKYEHLRWYRLNLSTLHDAHGNPLLLDCKNVHLFATPLAASLEEVAPGARHATLSLSIPRVAPEHEGHYVCEVQDRRSHDKHCHKKYLSVQALEAPRLTQNLTDLLVNVSDSLEMQCLVAGAHAPSIVWYKDERLLEEKSGVDLADSNQKLSIQRVREEDAGRYLCSVCNAKGCVNSSASVAVEGSEDKGSMEI
modifications: left off: a dimerising Fc or GST
notes: human VEGFR-3-Fc chimera
With B1 the “effect on VEGF-C-induced LEC sprouting (in words)” value [1] was “inhibited” and the “% inhibition of Gal-8-induced LEC sprouting” value ([2]; Gal-8 0.75 μM, 10 μg/ml, 24 hours) was 37%.
